What was measured:
α-glucosidase = assay: in vitro α-glucosidase inhibitory activity; assay type: biochemical, Homo sapiens
Description: The inhibitory analyses for α-glucosidase were carried out in accordance with the protocols reported in the literature; the inhibitory activities of the synthesized hybrids were calculated utilizing screening assay tools.

α-amylase = molecular target: T1, α-amylase (Homo sapiens, UniProt P04746); assay: in vitro α-amylase inhibitory activity; assay type: biochemical
T1 sequence (P04746 16-511): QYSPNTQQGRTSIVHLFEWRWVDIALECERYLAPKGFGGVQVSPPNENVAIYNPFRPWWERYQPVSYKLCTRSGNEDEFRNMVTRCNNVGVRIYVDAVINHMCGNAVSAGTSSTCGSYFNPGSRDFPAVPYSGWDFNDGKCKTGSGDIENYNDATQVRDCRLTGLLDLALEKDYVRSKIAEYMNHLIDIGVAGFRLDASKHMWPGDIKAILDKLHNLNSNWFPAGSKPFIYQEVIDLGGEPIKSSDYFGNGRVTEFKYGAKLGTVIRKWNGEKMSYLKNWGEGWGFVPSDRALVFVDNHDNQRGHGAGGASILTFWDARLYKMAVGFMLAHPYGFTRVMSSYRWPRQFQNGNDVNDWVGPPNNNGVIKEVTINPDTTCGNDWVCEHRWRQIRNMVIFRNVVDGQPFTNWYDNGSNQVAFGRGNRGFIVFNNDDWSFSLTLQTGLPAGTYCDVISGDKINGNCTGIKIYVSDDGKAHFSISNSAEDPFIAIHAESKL
Description: The test samples were added in alpha-amylase solution. The enzyme solution was prepared with enzyme and buffer solution. The mixture of the samples and enzyme was then incubated. Then, starch and dinitrosalicylic acid solution was added. The same was performed for both test compounds and the standard drug. […] The percent alpha-amylase inhibition activity and its IC50 values were calculated and confirmed as per the previous procedure.

PTP1B = molecular target: T2, PTP1B (Homo sapiens, UniProt P18031); assay: PTP1B assay (pNPP substrate); assay type: biochemical
T2 sequence (P18031 1-435): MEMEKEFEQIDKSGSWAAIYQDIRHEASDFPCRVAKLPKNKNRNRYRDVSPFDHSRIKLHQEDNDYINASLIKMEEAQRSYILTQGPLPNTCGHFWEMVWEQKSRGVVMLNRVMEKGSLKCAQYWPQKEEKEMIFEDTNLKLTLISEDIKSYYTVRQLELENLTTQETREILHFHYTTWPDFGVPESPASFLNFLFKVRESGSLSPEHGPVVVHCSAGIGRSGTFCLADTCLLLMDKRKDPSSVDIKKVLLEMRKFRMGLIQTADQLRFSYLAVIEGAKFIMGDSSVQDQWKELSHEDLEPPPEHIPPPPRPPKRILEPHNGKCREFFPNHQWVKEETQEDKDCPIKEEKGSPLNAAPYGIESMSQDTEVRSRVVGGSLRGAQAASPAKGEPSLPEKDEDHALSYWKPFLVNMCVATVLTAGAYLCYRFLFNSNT
Description: The aforementioned newly synthesize succinimides and thiazolidinedione hybrids were tested against the PTP1B enzyme to determine their ability to inhibit the negative regulation of insulin as well as leptin signaling. The PTP1B test was performed with a small modification to the method described in the publications. The enzyme efficiency was evaluated using […] (pNPP) as a substrate. For the buffer solution, 0.5 millimolar (mM) of ethylene diamine tetraacetic acid (EDTA), 1 mM of mercaptoethanol, 0.55 mM of dithiothreitol (DTT), and 12.49 mM of TRIS hydrochloride (ph = 7.4) were used. The experiment was carried out by mixing 10.0 μL of the test compound solutions with 20.0 μL of the enzyme (1 μg/mL), subsequently injecting 40.0 μL of 4.0 mM 4-nitrophenyl dihydrogen phosphate in 130.5 μL of the prescribed buffer in a microplate well at 37 °C for 10 min. pNP was formed during the enzymatic process, which was monitored for 30 min. The IC50 values were derived using a non-linear regression analysis of the fraction of the product generated vs. the log of the inhibitory concentration.

With `CC(C)(C=C1SC(=O)N(C(=O)CN2CCOCC2)C1=O)C1CC(=O)N(Cc2ccccc2)C1=O` (stereo not drawn) [10d] the IC50 (α-glucosidase) was 10 µM, the “% α-Glucosidase Inhibition” value (α-glucosidase; 31.25 µM) was 67.10 ± 0.95% and the “% α-Glucosidase Inhibition” value (α-glucosidase; 62.5 µM) was 72.26 ± 0.77%. For the same compound, the “% α-Glucosidase Inhibition” value (α-glucosidase; 125 µM) was 77.93 ± 0.90%, the “% α-Glucosidase Inhibition” value (α-glucosidase; 250 µM) was 83.83 ± 0.66% and the “% α-Glucosidase Inhibition” value (α-glucosidase; 500 µM) was 88.43 ± 1.26%. The IC50 (α-amylase) was 12 µM, the inhibition at 31.25 µM (α-amylase; 31.25 µM, read-out: % α-Amylase Inhibition (converted)) was 68.6% and the inhibition at 62.5 µM (α-amylase; 62.5 µM, read-out: % α-Amylase Inhibition (converted)) was 70%. The inhibition at 125 µM (α-amylase; 125 µM, read-out: % α-Amylase Inhibition (converted)) was 72.7%, the inhibition at 250 µM (α-amylase; 250 µM, read-out: % α-Amylase Inhibition (converted)) was 76.3% and the inhibition at 500 µM (α-amylase; 500 µM, read-out: % α-Amylase Inhibition) was 82.3 ± 1.2%. For the same compound, the IC50 (PTP1B) was 3.64 µM, the inhibition at 31.25 µM (PTP1B; 31.25 µM) was 71.8% and the inhibition at 62.5 µM (PTP1B; 62.5 µM) was 74.7%. It also gave an inhibition at 125 µM (PTP1B; 125 µM) of 79%, an inhibition at 250 µM (PTP1B; 250 µM) of 84.5% and an inhibition at 500 µM (PTP1B; 500 µM) of 89.88 ± 0.89%.

From PMC9918900, “New Succinimide–Thiazolidinedione Hybrids as Multitarget Antidiabetic Agents: Design, Synthesis, Bioevaluation, and Molecular Modelling Studies” (Molecules, 2023)
